Key:
[1] = Carbon monoxide release in 5 % MeOH aqueous solution, headspace GC-TCD; assay type: physicochemical; settings: 37 °C; for eq. CO released: eqCO = nCO/nFe; for % residual complex: 48 h, calculated as [1 – Σ(eqCO)/3]∙100
Description: Carbon monoxide release. A stock solution was prepared by dissolving the selected Fe compound (ca. 10 mg) in MeOH (0.50 mL) then diluting with H2O up to 10.0 mL total volume (5 % v/v MeOH). Next, 3.20 mL of the solution (n Fe ca. 6 ⋅ 10^−3 mmol) and a 7x2 mm stir bar were transferred into a 4‐mL screw top vial (1.72 mL neat gas phase volume). The mixture was sealed with a screw cap with a PTFE/silicone septum and heated at 37 °C for 24 h under stirring. Afterwards, the headspace was sampled with a gas tight microsyringe ([…]) and analysed by GC‐TCD. Therefore, the vial was vented, sealed and heated for further 24 h, and GC‐TCD analysis was repeated. The amount of released CO (νCO, mmol) was calculated based on a calibration curve obtained from analyses of known air/CO mixtures (1–10 % v/v), and the number of equivalents released over a 24 h period refers to the initial amount of compound (eqCO=n CO/n Fe). The residual amount of starting diiron complex after 48 h was calculated by assuming the release of 3 equivalents of CO per mole and the total amount of CO released.

PSN‐1 cells [2] = assay: ROS production, CM-H2DCFDA fluorescence; assay type: cell-based, human; settings: time-dependent (Figure 5A)
Description: (§1) Iron is a redox active metal that can generate ROS in cells via the Fenton reaction, thus inducing cellular damage and ultimately leading to cell death.[40] […] Based on this premises, we evaluated the effects induced by the diiron complexes on the mitochondria activity and the cellular redox environment. More precisely, we investigated the ROS production and the alteration of the mitochondrial membrane potential. […] The time‐dependent ROS basal production is probably associated to more than one phenomenon. First of all, the progressive disruption of the diiron structure leads to the extrusion of the Fe^I centres, which are expected to subsequently convert into Fe^III (in fact, slow precipitation of iron(III) oxides has been recognized from water solution, see above). […]
(§2) Figure 5 Effects induced by compounds [2C]CF3SO3 and [2D]CF3SO3 at the mitochondrial level. […] The fluorescence of DCF was measured at λ ex=485 nm and λ em=527 nm. […] Fluorescence was estimated at λ ex=490 nm and λ em=590 nm. […]
ROS production. The production of ROS was measured in PSN‐1 cells (10^4 per well) grown for 24 h in a 96‐well plate in RPMI medium without phenol red (Merck). […] Fluorescence increase was estimated by using λ ex=485 nm and λ em=527 nm in a VICTOR X3 (PerkinElmer) plate reader. […]

PSN‐1 cells [3] = assay: Mitochondrial membrane potential; assay type: cell-based, human; settings: 24 h (Figure 5B)
Description: as §1, with “above). Otherwise, based on previous voltammetric measurements on [2E–F]CF3SO3,[41] oxidation of iron enclosed in the complex is out of the range of biologically relevant potentials.” for “above).”
as §2
Mitochondrial membrane potential (ΔΨ). […] Fluorescence intensity was estimated using a VICTOR X3 (PerkinElmer, USA) plate reader at λ ex=490 and λ em=590 nm. […]

[4] = system: human cancer cell line panel (2008, HCT‐15, PSN‐1, MCF‐7, A375); assay: MTT assay, average over the human cancer cell line panel; assay type: cell-based; settings: average over tested cancer cell lines, 72 h
Description: The diiron complexes [2A]^+, [2C–E]^+, [3F–G]^+, [5H]^+ (as CF3SO3 salts) and [2B]^+, [4G]^+ (as BF4 salts) were tested for their cytotoxic potential by means of the MTT assay, as reported in the Experimental Section. The most convenient counter anion in terms of preparation and handling/storage was chosen in each case; in particular, [2C]CF3SO3 was included in the study, while [2C]Cl was excluded, being highly moisture sensitive and thus affecting the accuracy of the weighting operation. The in‐house human cancer cell line panel contains examples of ovarian (2008), colon (HCT‐15), pancreatic (PSN‐1), and breast (MCF‐7) cancers as well as of melanoma (A375). Cisplatin was used as a reference and tested under the same experimental conditions. In addition, the cytotoxicity was also evaluated for shorter time of exposure (24 h) towards PSN‐1 cancer cells (Table S5).
MTT assay. The growth inhibitory effect towards tumour cells was evaluated by means of MTT assay as previously described.[57] Briefly, 3–8×10^3 cells/well, dependent upon the growth characteristics of the cell line, were seeded in 96‐well microplates in growth medium (100 μL). After 24 h, the medium was removed and replaced with a fresh one containing the compound to be studied at the appropriate concentration. Triplicate cultures were established for each treatment. After 24 or 72 h, each well was treated with 10 μL of a 5 mg/mL MTT saline solution, and following 5 h of incubation, 100 μL of a sodium dodecyl sulfate (SDS) solution in HCl 0.01 M were added. After an overnight incubation, cell growth inhibition was detected by measuring the absorbance of each well at 570 nm using a Bio‐Rad 680 microplate reader. Mean absorbance for each drug dose was expressed as a percentage of the control untreated well absorbance and plotted against drug concentration. IC50 values, the drug concentrations that reduce the mean absorbance at 570 nm to 50 % of those in the untreated control wells, were calculated by the four‐parameter logistic (4‐PL) model. Evaluation was based on means from at least four independent experiments.

Substance	eq. CO released ([1]; 0-24 h)	eq. CO released ([1]; 24-48 h)	% residual complex [1]	Cellular ROS production (PSN‐1 cells [2])	Cells with depolarized mitochondria (mitochondrial membrane potential) (PSN‐1 cells [3])	IC50 [4]
[Fe2Cp2(CO)2(μ‐CO){μ‐CNMe(C6H11)}]X [[2C]CF3SO3]	0.25 ± 0.02 eq.	0.23 ± 0.04 eq.	83-86%	substantial increase in cellular ROS production	significant dose‐dependent increase of cells with depolarized mitochondria	17.4 µM
[Fe2Cp2(CO)2(μ‐CO){μ‐CNMe(CH2PO3Et2)}]X [[2B]BF4]						> 100 µM
[Fe2Cp2(CO)2(μ‐CO){μ‐CNMe(4‐C6H4OMe)}]CF3SO3 [[2D]CF3SO3]				substantial increase in cellular ROS production	significant dose‐dependent increase of cells with depolarized mitochondria	16.6 µM

The next lines start with results.

eq. CO released ([1]; 0-24 h)	eq. CO released ([1]; 24-48 h)	% residual complex [1]	Substance	Cellular ROS production (PSN‐1 cells [2])	Cells with depolarized mitochondria (mitochondrial membrane potential) (PSN‐1 cells [3])	IC50 [4]
0.29 ± 0.06 eq.	0.27 ± 0.02 eq.	80-84%	[Fe2Cp2(CO)2(μ‐CO){μ‐CNBn2}]X [[5H]CF3SO3]			
0.22 ± 0.06 eq.	0.15 ± 0.01 eq.	87-88%	[Fe2Cp2(CO)2(μ‐CO){μ‐CNMe(CH2CHCH2)}]X [[3F]CF3SO3]			> 100 µM

From publication PMC8362065, “Easily Available, Amphiphilic Diiron Cyclopentadienyl Complexes Exhibit in Vitro Anticancer Activity in 2D and 3D Human Cancer Cells through Redox Modulation Triggered by CO Release” (Chemistry (Weinheim an Der Bergstrasse, Germany), 2021)
